Results reported in the OligoGym collection.
Oligonucleotides are written 5' to 3', each unit as a sugar letter and its base; * is a phosphorothioate linkage, no mark a phosphodiester; rarer units and linkages stand in square brackets, end groups in braces. Plain capitals give the bases only. d = 2'-deoxy (DNA); r = 2'-OH (RNA)

Target: RHOQ
Assay: reporter assay of Huesken 2005
Details: siRNA
Also: test concentration or dose not given here.

Substance | normalised inhibition (eCFP-eYFP dual reporter)
sense rUrGrGrArUrCrUrGrCrCrUrUrArUrUrGrCrArUdTdT / antisense rArUrGrCrArArUrArArGrGrCrArGrArUrCrCrAdCdA | 88.7%
sense rCrArArArUrCrUrArGrGrArUrGrUrArCrUrGrUdTdT / antisense rArCrArGrUrArCrArUrCrCrUrArGrArUrUrUrGdTdG | 79.4%
sense rUrGrArArGrArGrUrGrGrArGrArGrArGrUrCrUdTdT / antisense rArGrArCrUrCrUrCrUrCrCrArCrUrCrUrUrCrAdAdT | 70.7%
sense rUrArUrGrCrUrCrArArArUrGrGrArArUrCrUrUdTdT / antisense rArArGrArUrUrCrCrArUrUrUrGrArGrCrArUrAdCdA | 54.7%
sense rUrArCrUrGrGrArUrGrArCrUrGrGrCrCrArGrGdTdT / antisense rCrCrUrGrGrCrCrArGrUrCrArUrCrCrArGrUrAdGdA | 55.2%
sense rArArArUrGrGrUrGrGrUrUrCrArCrArUrUrArAdTdT / antisense rUrUrArArUrGrUrGrArArCrCrArCrCrArUrUrUdCdT | 85.8%
sense rArUrCrUrUrArUrGrUrArArCrUrUrUrCrUrUrAdTdT / antisense rUrArArGrArArArGrUrUrArCrArUrArArGrArUdTdC | 59.1%
sense rUrGrArArUrCrGrGrArCrArUrUrUrGrGrArUrGdTdT / antisense rCrArUrCrCrArArArUrGrUrCrCrGrArUrUrCrAdGdA | 38.9%
sense rArUrGrGrArUrGrCrArUrCrArGrArUrArArUrGdTdT / antisense rCrArUrUrArUrCrUrGrArUrGrCrArUrCrCrArUdTdA | 82.5%
sense rUrArArArGrUrArUrCrArUrGrGrCrCrUrUrArUdTdT / antisense rArUrArArGrGrCrCrArUrGrArUrArCrUrUrUrAdAdT | 75.9%
sense rUrUrArArUrUrCrArCrArUrGrArCrUrUrGrArGdTdT / antisense rCrUrCrArArGrUrCrArUrGrUrGrArArUrUrArAdCdA | 54.4%
sense rArArUrGrCrUrCrArUrArUrCrArGrUrCrArCrAdTdT / antisense rUrGrUrGrArCrUrGrArUrArUrGrArGrCrArUrUdTdA | 76%
sense rUrUrGrUrGrArArCrArArCrCrUrArArUrGrCrAdTdT / antisense rUrGrCrArUrUrArGrGrUrUrGrUrUrCrArCrArAdTdG | 83%
sense rArUrGrGrArArUrCrUrUrArUrGrUrArArCrUrUdTdT / antisense rArArGrUrUrArCrArUrArArGrArUrUrCrCrArUdTdT | 51.1%
sense rUrGrUrGrGrArUrCrUrGrCrCrUrUrArUrUrGrCdTdT / antisense rGrCrArArUrArArGrGrCrArGrArUrCrCrArCrAdGdC | 68.8%

Target: UBE2H
Assay: reporter assay of Huesken 2005
Details: siRNA

Substance | normalised inhibition (eCFP-eYFP dual reporter)
sense rCrArGrArArArArUrUrArArArGrArGrUrArCrAdTdT / antisense rUrGrUrArCrUrCrUrUrUrArArUrUrUrUrCrUrGdCdT | 78.6%
sense rGrGrCrGrCrUrGrArArArGrArArCrArGrGrArAdTdT / antisense rUrUrCrCrUrGrUrUrCrUrUrUrCrArGrCrGrCrCdTdC | 98.5%
sense rArArUrArUrArUrUrUrGrArGrUrCrCrUrUrCrCdTdT / antisense rGrGrArArGrGrArCrUrCrArArArUrArUrArUrUdGdG | 41.6%
sense rGrArArGrArArUrArCrArArGrCrArGrArArArAdTdT / antisense rUrUrUrUrCrUrGrCrUrUrGrUrArUrUrCrUrUrCdTdG | 95.1%
sense rArArCrCrCrCrArUrArGrArUrCrCrUrCrUrCrAdTdT / antisense rUrGrArGrArGrGrArUrCrUrArUrGrGrGrGrUrUdAdG | 49.4%
sense rGrUrGrArArGrUrUrUrUrArUrGrGrArCrCrArCdTdT / antisense rGrUrGrGrUrCrCrArUrArArArArCrUrUrCrArCdTdA | 63.8%
sense rArUrGrGrArCrCrArCrArArGrGrArArCrArCrCdTdT / antisense rGrGrUrGrUrUrCrCrUrUrGrUrGrGrUrCrCrArUdAdA | 34%
sense rGrArUrCrUrUrArCrCrArArUrArUrArUrUrUrGdTdT / antisense rCrArArArUrArUrArUrUrGrGrUrArArGrArUrCdAdT | 78.3%
sense rArUrGrGrUrGrArCrGrCrUrGrCrArGrCrCrArUdTdT / antisense rArUrGrGrCrUrGrCrArGrCrGrUrCrArCrCrArUdTdG | 86.6%
sense rArUrGrArGrGrUrUrArCrGrArUrCrCrUrGrGrGdTdT / antisense rCrCrCrArGrGrArUrCrGrUrArArCrCrUrCrArUdGdT | 77.7%
sense rArGrArGrGrGrUrArCrCrGrGrGrGrArCrArGrCdTdT / antisense rGrCrUrGrUrCrCrCrCrGrGrUrArCrCrCrUrCrUdTdC | 65%
sense rGrArGrGrUrUrArCrGrArUrCrCrUrGrGrGrArGdTdT / antisense rCrUrCrCrCrArGrGrArUrCrGrUrArArCrCrUrCdAdT | 57.3%
sense rCrArArGrGrArArCrArCrCrArUrArUrGrArArGdTdT / antisense rCrUrUrCrArUrArUrGrGrUrGrUrUrCrCrUrUrGdTdG | 99.5%
sense rUrArCrCrArArUrArUrArUrUrUrGrArGrUrCrCdTdT / antisense rGrGrArCrUrCrArArArUrArUrArUrUrGrGrUrAdAdG | 48.6%
sense rCrGrCrCrArCrGrGrArGrGrArGrGrCrGrCrUrGdTdT / antisense rCrArGrCrGrCrCrUrCrCrUrCrCrGrUrGrGrCrGdTdA | 66.8%
sense rArGrUrGrArArGrUrUrUrUrArUrGrGrArCrCrAdTdT / antisense rUrGrGrUrCrCrArUrArArArArCrUrUrCrArCrUdAdC | 95.5%
sense rArUrUrGrGrCrCrUrArUrCrCrUrArArCrCrCrCdTdT / antisense rGrGrGrGrUrUrArGrGrArUrArGrGrCrCrArArUdAdA | 36.2%
sense rCrArArUrArUrArUrUrUrGrArGrUrCrCrUrUrCdTdT / antisense rGrArArGrGrArCrUrCrArArArUrArUrArUrUrGdGdT | 84.2%
sense rUrArUrCrCrUrArArCrCrCrCrArUrArGrArUrCdTdT / antisense rGrArUrCrUrArUrGrGrGrGrUrUrArGrGrArUrAdGdG | 50.2%
sense rGrUrGrGrArCrCrUrArCrCrUrGrArUrArArArUdTdT / antisense rArUrUrUrArUrCrArGrGrUrArGrGrUrCrCrArCdTdC | 77.9%
sense rGrUrCrUrArGrArUrGrUrArArUrUrArArUrCrAdTdT / antisense rUrGrArUrUrArArUrUrArCrArUrCrUrArGrArCdAdC | 106%
sense rArUrCrGrArGrArGrUrArArArCrArUrGrArGrGdTdT / antisense rCrCrUrCrArUrGrUrUrUrArCrUrCrUrCrGrArUdGdA | 71.1%
